Data on 17 molecules can be found in patent US11661431B2, “Thienopyrrole compounds” (Gilead Sciences, Inc., priority 2021, dated 2023).

One test addresses TLR7 (Homo sapiens (Human), UniProt Q9NYK1). Kind of test: TLR7 human peripheral blood mononuclear cell (PBMC) cell-based assay (GS-986 as agonist; IL-6 and IFNα readout). The conditions noted are these: human PBMCs, TLR7 agonist GS-986 at 400 nM, 6 hours, antagonist potency; read-out: TLR-7 EC50. The procedure, abridged:
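Human PBMCs (100,000 cells/well) preincubated 1 h at 37 °C with antagonist in 10-point dose response, then stimulated with TLR7 agonist for a further 6 h at 37 °C, 5% CO2. Supernatant IL-6 and IFNα measured by electrochemiluminescence immunoassay.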

A further test has as its target TLR8 (Homo sapiens (Human), UniProt Q9NR97). As to the kind of experiment: TLR8 human peripheral blood mononuclear cell (PBMC) cell-based assay (Compound A as agonist; TNFα and IL12p40 readout). The conditions noted are these: human PBMCs, TLR8 agonist Compound A at 800 nM, 6 hours, antagonist potency; read-out: TLR-8 EC50.

Sequence of TLR7 (Q9NYK1 27-1049): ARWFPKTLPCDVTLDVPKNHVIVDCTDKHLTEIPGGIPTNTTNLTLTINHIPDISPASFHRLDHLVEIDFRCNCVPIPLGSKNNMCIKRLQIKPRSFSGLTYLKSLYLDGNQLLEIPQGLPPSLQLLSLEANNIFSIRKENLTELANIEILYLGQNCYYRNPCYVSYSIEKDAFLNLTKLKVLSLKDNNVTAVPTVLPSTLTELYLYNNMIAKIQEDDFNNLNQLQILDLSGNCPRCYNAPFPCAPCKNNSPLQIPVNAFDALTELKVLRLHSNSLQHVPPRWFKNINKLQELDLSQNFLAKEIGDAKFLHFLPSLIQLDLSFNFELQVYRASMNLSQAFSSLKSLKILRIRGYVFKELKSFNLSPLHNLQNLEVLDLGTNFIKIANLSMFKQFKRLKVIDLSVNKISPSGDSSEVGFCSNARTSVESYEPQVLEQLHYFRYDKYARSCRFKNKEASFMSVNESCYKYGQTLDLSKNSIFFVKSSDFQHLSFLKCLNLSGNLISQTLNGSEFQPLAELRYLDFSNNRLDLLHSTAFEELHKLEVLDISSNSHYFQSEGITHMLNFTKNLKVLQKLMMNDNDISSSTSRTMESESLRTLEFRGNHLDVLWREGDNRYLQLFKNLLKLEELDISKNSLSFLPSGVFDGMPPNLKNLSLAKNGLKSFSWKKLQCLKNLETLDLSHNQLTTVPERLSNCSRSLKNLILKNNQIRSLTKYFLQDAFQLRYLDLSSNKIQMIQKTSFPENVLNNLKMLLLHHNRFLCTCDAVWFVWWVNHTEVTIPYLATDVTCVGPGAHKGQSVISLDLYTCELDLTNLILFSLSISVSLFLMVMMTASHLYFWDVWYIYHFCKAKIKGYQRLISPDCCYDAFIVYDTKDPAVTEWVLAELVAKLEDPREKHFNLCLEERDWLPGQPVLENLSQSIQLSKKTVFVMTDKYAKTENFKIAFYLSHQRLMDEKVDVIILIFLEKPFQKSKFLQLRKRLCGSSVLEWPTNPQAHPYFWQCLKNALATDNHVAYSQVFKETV
Sequence of TLR8 (Q9NR97 27-1041): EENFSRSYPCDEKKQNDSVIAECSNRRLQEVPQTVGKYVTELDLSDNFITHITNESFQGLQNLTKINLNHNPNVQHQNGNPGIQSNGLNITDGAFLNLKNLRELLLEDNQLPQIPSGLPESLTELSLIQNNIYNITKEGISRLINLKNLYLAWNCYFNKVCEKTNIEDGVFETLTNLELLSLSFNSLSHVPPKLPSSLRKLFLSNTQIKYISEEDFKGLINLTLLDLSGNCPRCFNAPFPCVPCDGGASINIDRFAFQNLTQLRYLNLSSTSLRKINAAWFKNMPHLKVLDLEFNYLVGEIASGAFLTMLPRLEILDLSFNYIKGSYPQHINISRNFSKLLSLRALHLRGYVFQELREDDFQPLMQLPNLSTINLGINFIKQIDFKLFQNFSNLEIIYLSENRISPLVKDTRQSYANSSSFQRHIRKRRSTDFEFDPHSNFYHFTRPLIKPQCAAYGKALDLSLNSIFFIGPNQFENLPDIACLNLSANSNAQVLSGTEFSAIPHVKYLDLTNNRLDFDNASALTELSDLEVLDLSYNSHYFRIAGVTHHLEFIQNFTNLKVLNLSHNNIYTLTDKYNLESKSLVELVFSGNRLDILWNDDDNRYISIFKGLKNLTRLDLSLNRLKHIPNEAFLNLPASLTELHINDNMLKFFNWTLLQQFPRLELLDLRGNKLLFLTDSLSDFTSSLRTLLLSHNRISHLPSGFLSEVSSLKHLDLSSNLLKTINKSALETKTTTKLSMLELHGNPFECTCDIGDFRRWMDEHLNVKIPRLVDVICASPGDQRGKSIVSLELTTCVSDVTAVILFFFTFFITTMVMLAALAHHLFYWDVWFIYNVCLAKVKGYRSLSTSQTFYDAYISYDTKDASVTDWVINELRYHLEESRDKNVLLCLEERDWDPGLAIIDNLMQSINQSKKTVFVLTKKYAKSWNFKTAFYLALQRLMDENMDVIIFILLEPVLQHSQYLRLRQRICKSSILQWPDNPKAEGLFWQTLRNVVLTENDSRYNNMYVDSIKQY

As for `Cc1c(C2CC3(CCCNC3)C2)sc2[nH]c(-c3cc(C)c4ncnn4c3)c(C(C)C)c12` (stereo not shown) [Example 137], the EC50 was found to be 0.73 nM on TLR7 and 1.71 nM on TLR8.
Regarding `Cc1c(C2CC3(CCCN3)C2)sc2[nH]c(-c3cc(C)c4ncnn4c3)c(C(C)C)c12` (stereo not shown) [Example 138], the EC50 on TLR7 was found to be 0.19 nM; on TLR8, 0.49 nM.
For `Cc1c(-c2[nH]c3sc([C@@H]4C[C@@H]5C[C@H]4CN5CC(N)=O)c(C)c3c2C(C)C)cn2nc(Cl)nc2c1C` [Example 139], the values for the EC50 at TLR7 and at TLR8 were 0.54 nM and 0.29 nM, respectively.
For `Cc1c(C2CC3(CCCN3CC(N)=O)C2)sc2[nH]c(-c3cc(C)c4ncnn4c3)c(C(C)C)c12` (stereo not shown) [Example 140], the EC50 on TLR7 is 0.91 nM; on TLR8, 3.45 nM.
Turning to `Cc1cc(-c2[nH]c3sc([C@H]4C[C@@]5(CCCN(CC(N)=O)C5)C4)c(C)c3c2C(C)C)cn2ncnc12` [Example 141], the EC50 on TLR7 was determined as 0.42 nM; on TLR8, 10.6 nM.
For `Cc1cc(-c2[nH]c3sc([C@H]4C[C@]5(CCCN(CC(N)=O)C5)C4)c(C)c3c2C(C)C)cn2ncnc12` [Example 142] the same measures were 2.31 nM and 7.47 nM.
Take `Cc1c(-c2[nH]c3sc(C4CCN(C(=O)[C@@H]5C[C@@H]6OCC[C@@H]6N5)CC4)c(C)c3c2C(C)C)cn2ncnc2c1C` [Example 143]: the EC50 at TLR7 was 2.57 nM; at TLR8, 10.9 nM.
As to `Cc1c(-c2[nH]c3sc(C4CCC5(CC4)CNCCO5)c(C)c3c2C(C)C)cn2ncnc2c1C` (stereo not shown) [Example 144, 9-(5-(7,8-dimethyl-[1,2,4]triazolo[1,5-a]pyridin-6-yl)-4-isopropyl-3-methyl-6H-thieno[2,3-b]pyrrol-2-yl)-1-oxa-4-azaspiro[5.5]undecane], the EC50 on TLR7 is 0.25 nM; at TLR8, 2.03 nM.
For `Cc1c([C@H]2C[C@H]3C[C@@H]2CN3CC(N)=O)sc2[nH]c(-c3cc(C)c4ncnn4c3)c(C(C)C)c12` [Example 145], the EC50 at TLR7 turned out to be 0.09 nM; at TLR8 it was 1.86 nM.
Taken in the same sequence, the figures for `Cc1c(-c2[nH]c3sc([C@@H]4C[C@@H]5C[C@H]4CN5C(=O)[C@H]4COCCN4)c(C)c3c2C(C)C)cn2ncnc2c1C` [Example 146] were 0.9 nM and 12.8 nM.
As for `Cc1c(-c2[nH]c3sc([C@@H]4C[C@@H]5C[C@H]4CN5C(=O)[C@H]4C[C@@H](F)CN4)c(C)c3c2C(C)C)cn2ncnc2c1C` [Example 147], the EC50 on TLR7 was 0.23 nM; at TLR8, 16 nM.
For `Cc1c(-c2[nH]c3sc([C@@H]4C[C@@H]5C[C@H]4CN5C(=O)[C@H]4C[C@H](F)CN4)c(C)c3c2C(C)C)cn2ncnc2c1C` [Example 148], the EC50 came to 0.51 nM at TLR7 and 15.9 nM at TLR8.
Regarding `Cc1c(-c2[nH]c3sc([C@@H]4C[C@@H]5C[C@H]4CN5C(=O)[C@@H]4C[C@H](F)CN4)c(C)c3c2C(C)C)cn2ncnc2c1C` [Example 149], the results for the EC50 on TLR7 and at TLR8 were 0.72 nM and 9.53 nM, respectively.
Turning to `Cc1c(-c2[nH]c3sc([C@@H]4C[C@@H]5C[C@H]4CN5C(=O)[C@@H]4C[C@@H](F)CN4)c(C)c3c2C(C)C)cn2ncnc2c1C` [Example 150], the results for the EC50 at TLR7 and at TLR8 were 1.64 nM and 14.2 nM, respectively.
As to `Cc1c(-c2[nH]c3sc(C4CC(C(=O)N5CCNCC5)C4)c(C)c3c2C(C)C)cn2ncnc2c1C` (stereo not shown) [Example 151, (3-(5-(7,8-dimethyl-[1,2,4]triazolo[1,5-a]pyridin-6-yl)-4-isopropyl-3-methyl-6H-thieno[2,3-b]pyrrol-2-yl)cyclobutyl)(piperazin-1-yl)methanone], the EC50 came out at 0.26 nM at TLR7 and 0.99 nM on TLR8.
Taken in the same sequence, the figures for `Cc1c(-c2[nH]c3sc([C@@H]4C[C@@H]5C[C@H]4CN5Cc4n[nH]c(=O)[nH]4)c(C)c3c2C(C)C)cn2ncnc2c1C` [Example 152] were 0.42 nM and 2.86 nM.
Consider `Cc1c(-c2[nH]c3sc([C@@H]4C[C@@H]5C[C@H]4CN5C4(CC#N)CN(S(C)(=O)=O)C4)c(C)c3c2C(C)C)cn2ncnc2c1C` [Example 153], for which the figures for the EC50 at TLR7 and at TLR8 were 0.77 nM and 23.2 nM, respectively.

In general, EC50 refers to the concentration giving half of the maximal effect.
